# Measurements as given in ChEMBL document CHEMBL1201861, “Genomics of Drug Sensitity in Cancer screening data, Wellcome Trust Sanger Institute”.
# What was measured:
# Experiment in all cases: cells
# COLO-741 = type: functional, cell-based, Homo sapiens; conditions: Homo sapiens, COLO-741
# Description: SANGER: Inhibition of human COLO-741 cell growth in a cell viability assay.
# COLO-800 = type: functional, cell-based, Homo sapiens; conditions: Homo sapiens, COLO-800;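 also: growth inhibition of COLO-800 cells, read out with a cell viability assay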
# Description: SANGER: Inhibition of human COLO-800 cell growth in a cell viability assay.
# DBTRG-05MG = type: functional, cell-based, Homo sapiens; conditions: Homo sapiens, DBTRG-05MG;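 also: cell viability assay measuring growth inhibition of human DBTRG-05MG cells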
# Description: SANGER: Inhibition of human DBTRG-05MG cell growth in a cell viability assay.
# DU-4475 = type: functional, cell-based; conditions: Homo sapiens
# Description: SANGER: Inhibition of human DU-4475 cell growth in a cell viability assay.
# EFO-27 = type: functional, cell-based, Homo sapiens; conditions: Homo sapiens, EFO-27;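 also: growth inhibition of EFO-27 cells, read out with a cell viability assay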
# Description: SANGER: Inhibition of human EFO-27 cell growth in a cell viability assay.
# GB-1 = type: functional, cell-based, Homo sapiens; conditions: Homo sapiens, GB-1;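 also: growth of GB-1 cells judged by a viability assay, IC50 marks the concentration inhibiting growth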
# Description: SANGER: Inhibition of human GB-1 cell growth in a cell viability assay.
# GP5d = type: functional, cell-based, Homo sapiens; conditions: Homo sapiens, GP5d;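 also: growth inhibition of human GP5d cells, read out with a cell viability assay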
# Description: SANGER: Inhibition of human GP5d cell growth in a cell viability assay.
# HAL-01 = type: functional, cell-based; conditions: Homo sapiens;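 also: growth inhibition of human HAL-01 cells, read out with a cell viability assay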
# Description: SANGER: Inhibition of human HAL-01 cell growth in a cell viability assay.
# HCC2157 = type: functional, cell-based; conditions: Homo sapiens;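 also: growth inhibition of the cancer cell line, read out as cell viability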
# Description: SANGER: Inhibition of human HCC2157 cell growth in a cell viability assay.
# HDLM-2 = type: functional, cell-based; conditions: Homo sapiens;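 also: cell viability assay measuring suppression of HDLM-2 proliferation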
# Description: SANGER: Inhibition of human HDLM-2 cell growth in a cell viability assay.
# HT-1080 = type: functional, cell-based, Homo sapiens; conditions: Homo sapiens, HT-1080
# Description: SANGER: Inhibition of human HT-1080 cell growth in a cell viability assay.
# KNS-81-FD = type: functional, cell-based, Homo sapiens; conditions: Homo sapiens, KNS-81-FD;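 also: growth inhibition of KNS-81-FD cells, read out with a cell viability assay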
# Description: SANGER: Inhibition of human KNS-81-FD cell growth in a cell viability assay.
# KP-N-YN = type: functional, cell-based; conditions: Homo sapiens;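 also: growth inhibition of KP-N-YN cells, read out with a cell viability assay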
# Description: SANGER: Inhibition of human KP-N-YN cell growth in a cell viability assay.
# KU-19-19 = type: functional, cell-based, Homo sapiens; conditions: Homo sapiens, KU-19-19
# Description: SANGER: Inhibition of human KU-19-19 cell growth in a cell viability assay.
# KYSE-140 = type: functional, cell-based, Homo sapiens; conditions: Homo sapiens, KYSE-140;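 also: cell viability assay measuring growth inhibition in human KYSE-140 cells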
# Description: SANGER: Inhibition of human KYSE-140 cell growth in a cell viability assay.
# KYSE-510 = type: functional, cell-based, Homo sapiens; conditions: Homo sapiens, KYSE-510;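 also: cell viability readout used to measure how strongly growth of the cell line is suppressed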
# Description: SANGER: Inhibition of human KYSE-510 cell growth in a cell viability assay.
# LC-2-ad = type: functional, cell-based, Homo sapiens; conditions: Homo sapiens, LC-2-ad;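 also: growth inhibition of human LC-2-ad cells, read out with a cell viability assay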
# Description: SANGER: Inhibition of human LC-2-ad cell growth in a cell viability assay.
# LK-2 = type: functional, cell-based, Homo sapiens; conditions: Homo sapiens, LK-2;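 also: growth inhibition of LK-2 cells, read out with a viability assay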
# Description: SANGER: Inhibition of human LK-2 cell growth in a cell viability assay.
# LU-139 = type: functional, cell-based; conditions: Homo sapiens
# Description: SANGER: Inhibition of human LU-139 cell growth in a cell viability assay.
# M059J = type: functional, cell-based, Homo sapiens; conditions: Homo sapiens, M059J;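 also: growth inhibition of M059J cells, read out with a cell viability assay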
# Description: SANGER: Inhibition of human M059J cell growth in a cell viability assay.
# MC-IXC = type: functional, cell-based, Homo sapiens; conditions: Homo sapiens, MC-IXC;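 also: growth inhibition of MC-IXC cells, read out with a cell viability assay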
# Description: SANGER: Inhibition of human MC-IXC cell growth in a cell viability assay.
# MeWo = type: functional, cell-based, Homo sapiens; conditions: Homo sapiens, MeWo;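 also: growth inhibition of MeWo cells, determined by a cell viability readout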
# Description: SANGER: Inhibition of human Mewo cell growth in a cell viability assay.
# Mo = type: functional, cell-based; conditions: Homo sapiens
# Description: SANGER: Inhibition of human Mo-T cell growth in a cell viability assay.
# NB12 = type: functional, cell-based, Homo sapiens; conditions: Homo sapiens, NB12;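 also: growth inhibition of human NB12 cells, read out by a cell viability assay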
# Description: SANGER: Inhibition of human NB12 cell growth in a cell viability assay.
# NB7 = type: functional, cell-based; conditions: Homo sapiens;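 also: growth inhibition of NB7 cells, read out with a cell viability assay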
# Description: SANGER: Inhibition of human NB7 cell growth in a cell viability assay.
# NCI-H1304 = type: functional, cell-based; conditions: Homo sapiens;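 also: growth inhibition of the cancer cell line, measured in a cell viability assay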
# Description: SANGER: Inhibition of human NCI-H1304 cell growth in a cell viability assay.
# NCI-H1563 = type: functional, cell-based, Homo sapiens; conditions: Homo sapiens, NCI-H1563;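 also: growth inhibition of human NCI-H1563 cells, read out with a cell viability assay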
# Description: SANGER: Inhibition of human NCI-H1563 cell growth in a cell viability assay.
# NEC8 = type: functional, cell-based, Homo sapiens; conditions: Homo sapiens, NEC8;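 also: growth inhibition of human NEC8 cells, read out by a cell viability assay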
# Description: SANGER: Inhibition of human NEC8 cell growth in a cell viability assay.
# NH-12 = type: functional, cell-based, Homo sapiens; conditions: Homo sapiens, NH-12;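 also: growth inhibition of NH-12 cells, read out with a cell viability assay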
# Description: SANGER: Inhibition of human NH-12 cell growth in a cell viability assay.
# OE33 = type: functional, cell-based, Homo sapiens; conditions: Homo sapiens, OE33;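 also: growth inhibition of human OE33 cells, measured by a cell viability assay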
# Description: SANGER: Inhibition of human OE33 cell growth in a cell viability assay.
# OS-RC-2 = type: functional, cell-based, Homo sapiens; conditions: Homo sapiens, OS-RC-2;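 also: growth inhibition of human OS-RC-2 cells, measured by a cell viability assay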
# Description: SANGER: Inhibition of human OS-RC-2 cell growth in a cell viability assay.
# OVCAR-5 = type: functional, cell-based, Homo sapiens; conditions: Homo sapiens, OVCAR-5;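 also: growth inhibition of human OVCAR-5 cells, read out with a cell viability assay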
# Description: SANGER: Inhibition of human OVCAR-5 cell growth in a cell viability assay.
# PA-1 = type: functional, cell-based, Homo sapiens; conditions: Homo sapiens, PA-1;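 also: IC50 for suppression of PA-1 cell proliferation, determined with a cell viability read-out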
# Description: SANGER: Inhibition of human PA-1 cell growth in a cell viability assay.
# PSN1 = type: functional, cell-based, Homo sapiens; conditions: Homo sapiens, PSN1;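 also: suppression of growth of human PSN1 cells, read out by a cell viability assay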
# Description: SANGER: Inhibition of human PSN1 cell growth in a cell viability assay.
# RVH-421 = type: functional, cell-based, Homo sapiens; conditions: Homo sapiens, RVH-421
# Description: SANGER: Inhibition of human RVH-421 cell growth in a cell viability assay.
# SCC-4 = type: functional, cell-based, Homo sapiens; conditions: Homo sapiens, SCC-4;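 also: growth inhibition of human SCC-4 cells, read out as cell viability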
# Description: SANGER: Inhibition of human SCC-4 cell growth in a cell viability assay.
# SCH = type: functional, cell-based, Homo sapiens; conditions: Homo sapiens, SCH;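 also: growth inhibition of human SCH cells, read out in a cell viability assay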
# Description: SANGER: Inhibition of human SCH cell growth in a cell viability assay.
# SK-HEP1 = type: functional, cell-based, Homo sapiens, SK-HEP-1; conditions: Homo sapiens, SK-HEP1;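 also: cell viability readout used to quantify reduction in proliferation of human SK-HEP-1 cells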
# Description: SANGER: Inhibition of human SK-HEP-1 cell growth in a cell viability assay.
# SK-OV-3 = type: functional, cell-based, Homo sapiens; conditions: Homo sapiens, SK-OV-3;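 also: growth inhibition of SK-OV-3 human cells, read out with a cell viability assay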
# Description: SANGER: Inhibition of human SK-OV-3 cell growth in a cell viability assay.
# SN12C = type: functional, cell-based, Homo sapiens; conditions: Homo sapiens, SN12C;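 also: growth inhibition of human SN12C cells, measured by a cell viability assay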
# Description: SANGER: Inhibition of human SN12C cell growth in a cell viability assay.
# ACN = type: functional, cell-based, Homo sapiens; conditions: Homo sapiens, ACN;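 also: growth inhibition of the human ACN cell line, read out via cell viability testing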
# Description: SANGER: Inhibition of human ACN cell growth in a cell viability assay.
# AN3-CA = type: functional, cell-based; conditions: Homo sapiens;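 also: growth inhibition of human AN3-CA cells measured by a cell viability assay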
# Description: SANGER: Inhibition of human AN3-CA cell growth in a cell viability assay.
# BV-173 = type: functional, cell-based; conditions: Homo sapiens
# Description: SANGER: Inhibition of human BV-173 cell growth in a cell viability assay.
# CAL-33 = type: functional, cell-based, Homo sapiens; conditions: Homo sapiens, CAL-33;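 also: growth inhibition of CAL-33 cells, read out with a cell viability assay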
# Description: SANGER: Inhibition of human CAL-33 cell growth in a cell viability assay.
# CAL-39 = type: functional, cell-based, Homo sapiens; conditions: Homo sapiens, CAL-39;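 also: cell viability assay measuring growth inhibition of CAL-39 cells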
# Description: SANGER: Inhibition of human CAL-39 cell growth in a cell viability assay.
# CAL-54 = type: functional, cell-based, Homo sapiens; conditions: Homo sapiens, CAL-54;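 also: growth inhibition of CAL-54 cells, read out by a viability measurement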
# Description: SANGER: Inhibition of human CAL-54 cell growth in a cell viability assay.
# TE-12 = type: functional, cell-based; conditions: Homo sapiens;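 also: growth inhibition of TE-12 cells, read out by a cell viability assay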
# Description: SANGER: Inhibition of human TE-12 cell growth in a cell viability assay.
# TE-5 = type: functional, cell-based, Homo sapiens; conditions: Homo sapiens, TE-5;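 also: inhibition of cell growth, read out by a cell viability assay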
# Description: SANGER: Inhibition of human TE-5 cell growth in a cell viability assay.
# WM-115 = type: functional, cell-based, Homo sapiens; conditions: Homo sapiens, WM-115
# Description: SANGER: Inhibition of human WM-115 cell growth in a cell viability assay.
# CAPAN-1 = type: functional, cell-based, Homo sapiens; conditions: Homo sapiens, CAPAN-1;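 also: growth suppression of CAPAN-1 cells, read out by a cell viability assay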
# Description: SANGER: Inhibition of human CAPAN-1 cell growth in a cell viability assay.
smiles,measurement,setting,value
COc1cc(F)c(F)c(Nc2ccc(I)cc2F)c1NS(=O)(=O)C1(CC(O)CO)CC1 (stereo not given),IC50,COLO-741,0.915 µM
same,IC50,COLO-800,> 5 µM
same,IC50,DBTRG-05MG,> 5 µM
same,IC50,DU-4475,0.0183 µM
same,IC50,EFO-27,0.962 µM
same,IC50,GB-1,3.6 µM
same,IC50,GP5d,> 5 µM
same,IC50,HAL-01,> 5 µM
same,IC50,HCC2157,> 5 µM
same,IC50,HDLM-2,> 5 µM
same,IC50,HT-1080,0.538 µM
same,IC50,KNS-81-FD,2.41 µM
same,IC50,KP-N-YN,> 5 µM
same,IC50,KU-19-19,0.366 µM
same,IC50,KYSE-140,2.9 µM
same,IC50,KYSE-510,> 5 µM
same,IC50,LC-2-ad,> 5 µM
same,IC50,LK-2,> 5 µM
same,IC50,LU-139,> 5 µM
same,IC50,M059J,> 5 µM
same,IC50,MC-IXC,> 5 µM
same,IC50,MeWo,0.753 µM
same,IC50,Mo,> 5 µM
same,IC50,NB12,> 5 µM
same,IC50,NB7,4.71 µM
same,IC50,NCI-H1304,> 5 µM
same,IC50,NCI-H1563,4.47 µM
same,IC50,NEC8,> 5 µM
same,IC50,NH-12,1.2 µM
same,IC50,OE33,> 5 µM
same,IC50,OS-RC-2,> 5 µM
same,IC50,OVCAR-5,0.234 µM
same,IC50,PA-1,> 5 µM
same,IC50,PSN1,0.198 µM
same,IC50,RVH-421,0.0335 µM
same,IC50,SCC-4,5 µM
same,IC50,SCH,> 5 µM
same,IC50,SK-HEP1,2.05 µM
same,IC50,SK-OV-3,> 5 µM
same,IC50,SN12C,> 5 µM
same,IC50,ACN,0.0651 µM
same,IC50,AN3-CA,> 5 µM
same,IC50,BV-173,2.38 µM
same,IC50,CAL-33,1.56 µM
same,IC50,CAL-39,0.415 µM
same,IC50,CAL-54,> 5 µM
same,IC50,TE-12,> 5 µM
same,IC50,TE-5,4.52 µM
same,IC50,WM-115,0.421 µM
same,IC50,CAPAN-1,4.15 µM
O=C1N=C(NCc2cccs2)S/C1=C\c1ccc2ncccc2c1,IC50,COLO-741,> 5 µM
same,IC50,COLO-800,> 5 µM
same,IC50,DBTRG-05MG,> 5 µM
same,IC50,DU-4475,> 5 µM
same,IC50,EFO-27,> 5 µM
same,IC50,GB-1,> 5 µM
same,IC50,GP5d,> 5 µM
same,IC50,HAL-01,> 5 µM
same,IC50,HCC2157,> 5 µM
same,IC50,HDLM-2,> 5 µM
same,IC50,HT-1080,> 5 µM
same,IC50,KNS-81-FD,> 5 µM
same,IC50,KP-N-YN,> 5 µM
same,IC50,KU-19-19,> 5 µM
same,IC50,KYSE-140,> 5 µM
same,IC50,KYSE-510,> 5 µM
same,IC50,LC-2-ad,> 5 µM
same,IC50,LK-2,> 5 µM
same,IC50,LU-139,> 5 µM
same,IC50,M059J,> 5 µM
same,IC50,MC-IXC,> 5 µM
same,IC50,MeWo,> 5 µM
same,IC50,Mo,> 5 µM
same,IC50,NB12,> 5 µM
same,IC50,NB7,> 5 µM
same,IC50,NCI-H1304,> 5 µM
same,IC50,NCI-H1563,> 5 µM
same,IC50,NEC8,4.47 µM
same,IC50,NH-12,> 5 µM
same,IC50,OE33,> 5 µM
same,IC50,OS-RC-2,> 5 µM
same,IC50,OVCAR-5,> 5 µM
same,IC50,PA-1,1.23 µM
same,IC50,PSN1,4.11 µM
same,IC50,RVH-421,> 5 µM
same,IC50,SCC-4,> 5 µM
same,IC50,SCH,> 5 µM
same,IC50,SK-HEP1,> 5 µM
same,IC50,SK-OV-3,> 5 µM
same,IC50,SN12C,> 5 µM
same,IC50,ACN,> 5 µM
same,IC50,AN3-CA,> 5 µM
same,IC50,BV-173,> 5 µM
same,IC50,CAL-33,> 5 µM
same,IC50,CAL-39,> 5 µM
same,IC50,CAL-54,> 5 µM
same,IC50,TE-12,> 5 µM
same,IC50,TE-5,> 5 µM
same,IC50,WM-115,> 5 µM
same,IC50,CAPAN-1,> 5 µM
